Experimental data taken from patent publication US20250057791A1, “PROTECTION AGAINST ARTHROPOD PARASITES WITH PURINERGIC RECEPTOR (OPR) ANTAGONISTS” (priority 2021, published 2025).
Several values for one entry are separate records, joined by “and”; a condition that tells them apart may be missing. Identical values can stand only once.

Assays:
Ornithodorus moubata = experiment: Silicone membrane feeding of N3, N4 nymphs, Ornithodorus moubata; type: in vivo; details: for effect on feeding, compound in solution containing ATP, in words: doses as in Table 9
Experimental: O. moubata nymphs were fed for 25 min through a membrane (50-75 μm thick) as for hard ticks in glass feeding unit on TFS containing 1000 μM ATP as positive control in each feeding experiment. PR antagonists were added to the TFS as for hard ticks. One compound, TMP was applied onto the membrane in aqueous solution (8 μg TMP in 70 μl) in small drops using a micropipette. Individual nymphs were marked on the dorsum with nail varnish in distinguishable colours and weighed before and after the experiment.
(§1) Uptake of TFS containing PR antagonists, converted to mg/h for hard ticks and weight gains in mg/25 min for soft ticks, was compared to TFS uptake in the corresponding positive controls. […] For tsetse and horn flies the percentage flies that fed per antagonist treatment served as the criterion for inhibition of feeding. As horn fly sexes emerged within 24 h, both sexes were assumed to show the same degree of appetence. In tsetse, males emerged first so a gender-related appetence could not be excluded. No sex-related feeding differences in feeding were found for testse (GLM, P>0.05) so data for the sexes were pooled. Comparisons of percentage fed flies were made using a Bayesian GLM—the most appropriate model considering the zero-inflated distributions shown by the data sets. […] P-values were corrected using Holm's FWEC in multiple comparisons of data for each tick and fly species.

A. gambiae = experiment: Membrane feeding assay, A. gambiae; type: in vivo, Anopheles gambiae; details: for effect on feeding on solution containing ATP, in words: 20 μM ATP, CPT at 10 μM; for ID95 in μM (±s.e.m.): feeding on 20 μM ATP in the feeding solution
Experimental: Experiments with A. gambiae and A. stephensi were made in a climate chamber at 28° C. and 80% RH during the last 6 hours of scotophase. As a sugar meal can interfere with the blood meal by reducing the number of females that feed, the sucrose solution supplied in rearing cages to mosquitoes employed for feeding experiments was reduced to 5%. […] The 5% sucrose solution was presented to mosquitoes from emergence on four 1 cm diam. cotton dental rolls (Hartmann A G, Neuhausen, Switzerland) inserted in 10 ml upturned glass vials placed in holes at each corner of the rearing cage ceiling. Cotton rolls were turned daily in vials and renewed every two days. Mosquitoes were not fed blood and were deprived of sucrose 17 to 20 hours before experiments. Thirty min before a feeding experiment, between 10-25, 6-day-old females that responded to activation by human breath were removed with a mouth aspirator from the rearing cage wall and placed in polystyrol cylinders with the floor cut out (10 cm dm×15 cm high; Semadeni, Ostermundigen, Switzerland) that served as feeding cages. Each cage was covered with mosquito netting at one end and a soft polyurethane lid at the other.
Mosquitoes were fed for 30 min using a feeding system (Hemotek®, Hemotek Ltd, Blackburn, UK) consisting of 3.5 ml stainless steel reservoirs 37 mm in diameter covered with a 60-90 μm thick silicone-impregnated membrane (Kröber and Guerin, 2007 in “Feeding assays for hard ticks”, Trends in parasitology 23, 445-449; doi 10.1016/j.pt.2007.07.010). Feeding reservoirs reached a temperature of 37° C. within 10 min and were placed on the netting of feeding cages. Mosquitoes were activated using a 200 ms pulse of pure CO2 (volume 6.25 ml) from a pressurised cylinder (Carbagas, Switzerland) using a solenoid valve that caused the CO2 level in the feeding cage to rise to at least 1,500 ppm. Between 3 and 4 sets of 10 feeding cages held in a custom-built Ertacetal® POM frame were tested per day, depending of the number of female mosquitoes available from the colony.
All compounds were tested in a mosquito feeding solution (FS) consisting of 25 mM dextrose, 25 mM NaCl buffered with 8.93 mM NaHCO3 adjusted to pH 7.4. Feeding responses of A. gambiae and A. stephensi to ATP as a function of dose were tested with between 7 to 10 feeding cages per dose. Each feeding experiment with an antagonist systematically included a treatment containing the FS as negative control along with a treatment containing the FS with […] added as positive control for A. gambiae and with […] added as positive control for A. stephensi. These positive and negative controls permitted to monitor any effect of experimental day on feeding responses as a function of dose for antagonists that were recorded over several days. […] Four to 10 cages each with 10 to 29 mosquitoes were tested per antagonist dose. […] The number of feeding cages used to test other compounds and their mixtures as feeding stimulants or as feeding inhibitors is listed on Table 6. The percentage of fed mosquitoes was estimated by visual inspection of abdominal distention that is indicative of engorgement.
Pairwise comparisons of A. gambiae electrophysiological (EP) responses to ATP and adenosine alone and combined with a given dose of PR antagonist, EP responses to ATP alone and combined with a given dose of a metal modulator, and EP responses to ATP prior to and after exposure of a sensillum to a given dose of a PR antagonist were made with a one-tailed Wilcoxon signed-rank test for data showing a non-normal distribution, with a paired Student's t-test for normally distributed data showing homogeneous variance and with a Welch's t-test for normally distributed data showing non-homogeneous variance. […]

Haematobia irritans = experiment: Membrane feeding assay, horn fly Haematobia irritans; type: in vivo; details: for effect on feeding on solutions containing ATP, in words: doses as in Table 10
Experimental: (§2) Flies of both species were transferred 30 min before feeding experiments to feeding cages as used for mosquitoes at 24° C., 80% RH in an environmental cabinet. Teneral tsetse were fed at 2 to 4 days old during the photophase with between 7 and 13 flies per feeding cage, covered with a black cloth. Horn flies were tested at 1 and 2 days old in the photophase with between 6 and 21 flies per cage. Both fly species were fed using small Hemotek feeding reservoirs (29 mm diameter, 1 ml) equipped with a membrane as for mosquitoes. Horn flies were fed for 15 min with feeding reservoirs placed on the cage. For tsetse, cages were closed with black mosquito netting at the bottom to allow flies to feed through the membrane placed under the cage. Feeding time (1.5 to 6 min) for tsetse was adjusted as a function of age to achieve at least 30% feeding on the positive control included in each feeding experiment. The positive control for both fly species contained 150 mM NaCl, 8.9 mM NaHCO3 with 100 μM ATP added, hereafter termed fly feeding solution (FFS). The pH of the FFS was adjusted as for ticks. The effect of TMP on feeding by G. pallidipes was also tested at 16 μg TMP/cm^2 dissolved in 140 μl hexane and applied homogeneously to the membrane surface using a micropipette. Hexane was used to treat the membrane with TMP to avoid the test compound being dispersed by fly wing-fanning. Flies of both species were activated just prior to feeding on a treatment by exhalation into the cage. Tsetse that had fed were identified with swollen abdomens and counted at the end of a feeding experiment. Since it was difficult to ascertain by eye whether a horn fly had fed on a treatment, 10 μl/ml of blue food colorant (No. 4866908, Trawosa AG, St. Gallen, Switzerland) was added. This facilitated the detection of ingested liquid when the abdomen of flies, killed by freezing, was squashed onto filter paper. Only experiments in which the feeding rate by flies was >30% on the positive control were included in analyses.
as §1

Glossina pallidipes = experiment: Membrane feeding assay, tsetse fly Glossina pallidipes; type: in vivo; details: for effect on feeding, compound in solution containing ATP, in words: doses as in Table 10
Experimental: as §2, §1

[1] = TFS + 100 μM, N3, N4, silicone membrane

O=C(O)c1cc(C(=O)O)c(C(=O)N(Cc2cccc(Oc3ccccc3)c2)[C@H]2CCCc3ccccc32)cc1C(=O)O [A-317491, 5-[(3-phenoxyphenyl)methyl-[(1S)-1,2,3,4-tetrahydronaphthalen-1-yl]carbamoyl]benzene-1,2,4-tricarboxylic acid]
weight gain, Median (mg) (Ornithodorus moubata; TFS + 1 μM, N3, N4, silicone membrane): 0.1 mg/25 min | weight gain, Median (mg) (Ornithodorus moubata; [1]): 0 mg/25 min | effect on feeding, compound in solution containing ATP, in words (Ornithodorus moubata): inhibited feeding | effect on feeding on solution containing ATP, in words (A. gambiae): inhibited feeding | % fed mosquitoes (mean ± s.e.m.), ATP + antagonist (A. gambiae; antagonist 1 nM + 20 μM ATP): 43.71% | % Fed, Median (Haematobia irritans; FFS + 10 μM): 58.3% | % Fed, Median (Haematobia irritans; FFS + 100 μM): 41.5% | effect on feeding on solutions containing ATP, in words (Haematobia irritans): inhibited feeding | % Fed, Median (Glossina pallidipes; FFS + 1 μM): 22.5% | effect on feeding, compound in solution containing ATP, in words (Glossina pallidipes): inhibited feeding

Nc1ncnc2c1ncn2[C@@H]1O[C@H](COP(=O)(O)OP(=O)(O)OP(=O)(O)O)[C@@H](O)[C@H]1O [ATP, Adenosine 5′-triphosphate]
% fed mosquitoes (mean ± s.e.m.), ATP [20 μM] (A. gambiae; 20 μM ATP alone, positive control of the antagonist): 66.12% and 65.96% and 64.49% and 69.12% and 69.68% and 64.2% and 70.2% and 67.6% | % Engorged mosquitoes (A. gambiae; 20 μM in feeding solution): 67.5 ± 2.1% | % feeding at the ED95 (A. gambiae; 22.5 μM ATP): 68.15% | % mosquitoes fed at the asymptote (A. gambiae; 45 μM ATP): 70.25% | asymptote dose of feeding response (A. gambiae; dose dependent feeding): 45 µM | ED95, feeding stimulant (A. gambiae; dose dependent feeding on feeding solution): 22500 nM

Cc1ccc(C(=O)Nc2ccc(S(=O)(=O)O)c3cc(S(=O)(=O)O)cc(S(=O)(=O)O)c23)cc1NC(=O)c1cccc(NC(=O)Nc2cccc(C(=O)Nc3cc(C(=O)Nc4ccc(S(=O)(=O)O)c5cc(S(=O)(=O)O)cc(S(=O)(=O)O)c45)ccc3C)c2)c1 [Suramin]
weight gain, Median (mg) (Ornithodorus moubata; TFS + 500 μM, N3, N4, silicone membrane): 0 mg/25 min | % fed mosquitoes (mean ± s.e.m.), ATP + antagonist (A. gambiae; antagonist 1 μM + 20 μM ATP): 34.86% | ID95 in μM (±s.e.m.) (A. gambiae): 1.36 µM | % Fed, Median (Haematobia irritans; FFS + 50 μM): 61.5% | % Fed, Median (Haematobia irritans; FFS + 100 μM): 46.2% | % Fed, Median (Glossina pallidipes; FFS + 50 μM): 45.5%

Cc1nc(C)c(C)nc1C [TMP, 2,3,5,6-tetramethylpyrazine]
weight gain, Median (mg) (Ornithodorus moubata; 8 μg/cm^2 on membrane over TFS, N3, N4): 0 mg/25 min | weight gain, Median (mg) (Ornithodorus moubata; [1]): 0.1 mg/25 min | effect on feeding, compound applied onto the feeding membrane, in words (Ornithodorus moubata; dose as in Table 9): significantly inhibited feeding | effect on feeding, compound in solution containing ATP, in words (Ornithodorus moubata): failed to inhibit feeding | % Engorged mosquitoes (A. gambiae; 7.5 μM TMP + 20 μM ATP + 200 μM Adenosine): 36.7 ± 6.0% | effect on feeding on solution containing ATP, in words (A. gambiae): inhibited feeding | % fed mosquitoes (mean ± s.e.m.), ATP + antagonist (A. gambiae; antagonist 10 nM + 20 μM ATP): 50.47% | ID95 in μM (±s.e.m.) (A. gambiae): 1.28 µM | % Fed, Median (Haematobia irritans; FFS + 50 μM): 50% | % Fed, Median (Haematobia irritans; FFS + 100 μM): 37.5% | % Fed, Median (Haematobia irritans; FFS + 500 μM): 0% | effect on feeding on solutions containing ATP, in words (Haematobia irritans): inhibited feeding | % Fed, Median (Glossina pallidipes; FFS + 16 μg/cm^2 on membrane): 40% | % Fed, Median (Glossina pallidipes; FFS + 150 μM): 66.7% | effect on feeding, compound applied onto the feeding membrane, in words (Glossina pallidipes; dose as in Table 10): significantly inhibited feeding | effect on feeding, compound in solution containing ATP, in words (Glossina pallidipes): failed to inhibit feeding
